From patent publication US20220054575A1, “PROTECTION AGAINST CORONAVIRUS INFECTION BY EXTRACTS AND EXTRACT COMPONENTS” (Natreon, Inc., priority 2020, published 2022)

Assay: Solubility (description)
Assay type: physicochemical
Conditions: for solubility in organic solvent: DMSO / DMF

Compound | solubility in organic solvent | solubility in water
O=c1oc2cc(O)ccc2c2ccc(O)cc12 [3,8-dihydroxy-6H-benzo[c]chromen-6-one] | soluble in DMSO | largely insoluble in water
O=c1oc2cc(O)ccc2c2ccccc12 [3-hydroxy-6H-benzo[c]chromen-6-one] | soluble in DMSO and DMF | largely insoluble in water
